{"source": "paper PMC10935062", "about": "(Acta Pharmaceutica Sinica. B, 2023)", "assay": "Water solubility", "assay_type": "physicochemical", "data": [{"smiles": "NC(=O)c1ccc(C(=O)NOCc2ccc(Sc3ccc(N)cc3)c(C(F)(F)F)c2)cc1", "note": "[compound 11p]", "values": [{"measurement": "water solubility", "value": "superior water solubility"}]}]}
